According to patent US9045491B2, “Thienyl [3,2-D] pyrimidin-4-one compounds, preparation method, pharmaceutical compositions and use thereof” (SHANGHAI INSTITUTE OF MATERIA MEDICA, CHINESE ACADEMY OF …, priority 2011, dated 2015):
Blank lines part the entries; values can stand above or below the compound they belong to.

What was measured:
[1] = target: T1, human DPP IV (Homo sapiens, UniProt P27487); assay: DPP IV activity screening (Ala-Pro-AMC fluorescence); format: biochemical
T1 construct: extracellular fragment of protease DPP IV (aa29-766); made in house; host or cells: baculovirus expression system Bac-to-Bac
T1 sequence (P27487 29-766): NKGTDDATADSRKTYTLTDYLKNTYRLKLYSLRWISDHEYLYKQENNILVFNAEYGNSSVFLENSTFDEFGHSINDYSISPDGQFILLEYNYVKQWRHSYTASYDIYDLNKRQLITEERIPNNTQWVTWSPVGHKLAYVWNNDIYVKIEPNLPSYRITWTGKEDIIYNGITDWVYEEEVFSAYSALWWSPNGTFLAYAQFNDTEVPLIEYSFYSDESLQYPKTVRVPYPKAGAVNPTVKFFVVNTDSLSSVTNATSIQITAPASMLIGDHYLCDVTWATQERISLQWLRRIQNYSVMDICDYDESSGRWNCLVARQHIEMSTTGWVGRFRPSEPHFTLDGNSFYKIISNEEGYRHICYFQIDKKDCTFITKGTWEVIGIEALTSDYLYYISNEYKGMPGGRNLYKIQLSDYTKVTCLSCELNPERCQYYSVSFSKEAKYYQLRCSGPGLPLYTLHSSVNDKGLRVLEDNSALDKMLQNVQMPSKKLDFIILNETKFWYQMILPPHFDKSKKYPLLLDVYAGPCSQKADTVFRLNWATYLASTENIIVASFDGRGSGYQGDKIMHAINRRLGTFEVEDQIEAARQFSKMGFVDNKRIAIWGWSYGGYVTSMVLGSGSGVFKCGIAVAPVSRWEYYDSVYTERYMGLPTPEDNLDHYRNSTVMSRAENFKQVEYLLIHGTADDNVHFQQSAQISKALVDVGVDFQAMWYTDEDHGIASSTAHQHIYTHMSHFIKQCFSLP
How it was run: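 DPP IV activity is taken as the linear rate of fluorescence change at 460 nm. Samples are dissolved in DMSO and screened at a single concentration (e.g. 20 μg/mL). Dose-response data are fit to a variable-slope sigmoidal model with bottom and top fixed at 0 and 100.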

[2] = target: dipeptidyl peptidase 7 (DPP 7) (Homo sapiens, UniProt Q9UHL4); assay: DPP 7 activity screening; format: biochemical; details: N.I. = No Inhibition
How it was run: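 Sample dissolved in DMSO, final DMSO kept at a level not affecting activity; tested at a single concentration from preliminary screening (e.g. 20 μg/mL). Dose-response data fitted to sigmoidal variable-slope model with bottom and top fixed at 0 and 100.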

[3] = target: T2, human DPP 8 (Homo sapiens, UniProt Q6V1X1); assay: DPP 8 activity screening (Ala-Pro-AMC fluorescence); format: biochemical; details: N.I. = No Inhibition
T2 construct: made in house; host or cells: insect cells, baculovirus Bac-to-Bac
T2 sequence (Q6V1X1 whole entry): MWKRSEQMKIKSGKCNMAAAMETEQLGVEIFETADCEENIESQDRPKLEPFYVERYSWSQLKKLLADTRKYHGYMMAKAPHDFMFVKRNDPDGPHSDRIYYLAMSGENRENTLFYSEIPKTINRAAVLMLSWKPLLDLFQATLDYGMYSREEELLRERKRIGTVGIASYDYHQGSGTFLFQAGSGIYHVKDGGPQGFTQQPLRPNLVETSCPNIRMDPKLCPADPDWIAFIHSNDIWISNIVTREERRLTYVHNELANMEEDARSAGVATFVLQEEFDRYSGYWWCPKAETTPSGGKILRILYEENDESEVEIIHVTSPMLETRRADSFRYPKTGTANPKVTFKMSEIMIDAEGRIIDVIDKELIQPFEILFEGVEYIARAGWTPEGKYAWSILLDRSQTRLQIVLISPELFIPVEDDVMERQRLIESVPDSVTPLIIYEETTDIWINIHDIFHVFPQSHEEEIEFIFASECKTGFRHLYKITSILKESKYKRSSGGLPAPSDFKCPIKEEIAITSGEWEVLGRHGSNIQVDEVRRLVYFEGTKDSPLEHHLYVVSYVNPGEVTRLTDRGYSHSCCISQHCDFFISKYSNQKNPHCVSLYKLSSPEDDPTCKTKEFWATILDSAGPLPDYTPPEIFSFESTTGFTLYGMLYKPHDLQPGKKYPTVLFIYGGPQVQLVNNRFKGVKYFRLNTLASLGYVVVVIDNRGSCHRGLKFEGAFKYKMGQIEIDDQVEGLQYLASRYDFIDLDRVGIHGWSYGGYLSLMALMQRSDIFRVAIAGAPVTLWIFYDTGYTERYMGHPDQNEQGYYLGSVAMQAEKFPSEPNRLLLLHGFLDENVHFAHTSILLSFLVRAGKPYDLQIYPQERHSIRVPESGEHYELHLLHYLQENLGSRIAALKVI
How it was run: (§1)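 Insect-cell baculovirus-expressed human enzymes hydrolyse Ala-Pro-AMC; AMC release monitored kinetically as fluorescence rate (ex 355/em 460 nm). Primary screen at a single concentration (e.g. 20 μg/mL); dose–response fitted to variable-slope sigmoid with bottom/top fixed at 0 and 100.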

[4] = target: T3, Human DPP 9 (Homo sapiens, UniProt Q86TI2); assay: DPP 9 activity screening (Ala-Pro-AMC fluorescence); format: biochemical; details: N.I. = No Inhibition
T3 construct: made in house; host or cells: insect cells, baculovirus Bac-to-Bac
T3 sequence (Q86TI2 whole entry): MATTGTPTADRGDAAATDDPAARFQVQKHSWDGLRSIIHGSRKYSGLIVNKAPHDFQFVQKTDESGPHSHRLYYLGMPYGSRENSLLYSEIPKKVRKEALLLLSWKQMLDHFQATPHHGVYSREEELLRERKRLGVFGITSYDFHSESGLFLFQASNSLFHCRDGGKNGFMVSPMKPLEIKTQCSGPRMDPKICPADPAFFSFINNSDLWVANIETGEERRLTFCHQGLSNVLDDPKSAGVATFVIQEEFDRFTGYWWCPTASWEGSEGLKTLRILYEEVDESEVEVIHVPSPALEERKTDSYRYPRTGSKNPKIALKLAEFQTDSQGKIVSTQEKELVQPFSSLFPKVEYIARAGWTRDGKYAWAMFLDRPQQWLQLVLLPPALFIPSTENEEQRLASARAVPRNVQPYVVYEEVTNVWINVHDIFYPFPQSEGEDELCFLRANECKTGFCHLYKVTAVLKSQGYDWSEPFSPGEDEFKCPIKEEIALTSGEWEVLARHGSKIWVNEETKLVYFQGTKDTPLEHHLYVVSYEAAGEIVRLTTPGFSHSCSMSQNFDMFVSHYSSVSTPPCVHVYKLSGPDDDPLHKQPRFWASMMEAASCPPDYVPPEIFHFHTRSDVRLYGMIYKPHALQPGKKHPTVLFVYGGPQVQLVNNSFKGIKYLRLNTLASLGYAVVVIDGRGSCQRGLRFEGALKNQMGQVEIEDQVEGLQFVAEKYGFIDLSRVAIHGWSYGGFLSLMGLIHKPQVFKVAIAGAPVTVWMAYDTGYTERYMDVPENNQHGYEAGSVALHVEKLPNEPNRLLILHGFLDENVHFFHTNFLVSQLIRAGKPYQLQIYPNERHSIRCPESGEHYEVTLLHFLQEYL
How it was run: as §1

[5] = target: T4, FAP (Homo sapiens, UniProt Q12884); assay: FAP inhibition (Table 1); format: biochemical; details: N.I. = No Inhibition
T4 sequence (Q12884 1-760): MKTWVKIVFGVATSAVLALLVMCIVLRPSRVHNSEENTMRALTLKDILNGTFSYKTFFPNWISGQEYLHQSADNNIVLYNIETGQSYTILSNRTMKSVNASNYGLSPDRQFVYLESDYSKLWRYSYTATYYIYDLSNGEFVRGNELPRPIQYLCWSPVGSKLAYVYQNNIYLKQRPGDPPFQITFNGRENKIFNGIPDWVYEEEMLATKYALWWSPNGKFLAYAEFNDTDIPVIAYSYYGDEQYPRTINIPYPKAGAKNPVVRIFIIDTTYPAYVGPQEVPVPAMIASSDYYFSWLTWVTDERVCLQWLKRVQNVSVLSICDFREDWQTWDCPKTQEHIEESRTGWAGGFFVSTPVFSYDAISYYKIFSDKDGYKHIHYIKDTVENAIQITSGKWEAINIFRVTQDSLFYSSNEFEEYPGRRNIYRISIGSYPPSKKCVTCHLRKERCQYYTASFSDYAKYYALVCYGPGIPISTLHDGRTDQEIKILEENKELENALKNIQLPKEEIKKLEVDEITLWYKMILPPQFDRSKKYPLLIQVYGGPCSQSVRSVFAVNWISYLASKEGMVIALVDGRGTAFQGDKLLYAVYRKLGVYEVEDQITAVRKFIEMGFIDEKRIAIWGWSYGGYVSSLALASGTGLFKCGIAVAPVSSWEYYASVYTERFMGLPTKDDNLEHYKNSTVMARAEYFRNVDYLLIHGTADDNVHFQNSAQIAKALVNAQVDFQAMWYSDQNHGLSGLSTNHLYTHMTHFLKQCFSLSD

[6] = target: T5, DPP IV (Mus musculus, UniProt P28843); assay: DPP IV inhibitory activity in vivo: DPP IV activity in plasma of ICR mouse after single oral dose; details: oral 3 mg/kg, compared with Alogliptin and Vildagliptin (LAF237), FIG. 1-6
T5 construct: from tissue; host or cells: plasma of ICR mouse
T5 sequence (P28843 37-760 limits assumed): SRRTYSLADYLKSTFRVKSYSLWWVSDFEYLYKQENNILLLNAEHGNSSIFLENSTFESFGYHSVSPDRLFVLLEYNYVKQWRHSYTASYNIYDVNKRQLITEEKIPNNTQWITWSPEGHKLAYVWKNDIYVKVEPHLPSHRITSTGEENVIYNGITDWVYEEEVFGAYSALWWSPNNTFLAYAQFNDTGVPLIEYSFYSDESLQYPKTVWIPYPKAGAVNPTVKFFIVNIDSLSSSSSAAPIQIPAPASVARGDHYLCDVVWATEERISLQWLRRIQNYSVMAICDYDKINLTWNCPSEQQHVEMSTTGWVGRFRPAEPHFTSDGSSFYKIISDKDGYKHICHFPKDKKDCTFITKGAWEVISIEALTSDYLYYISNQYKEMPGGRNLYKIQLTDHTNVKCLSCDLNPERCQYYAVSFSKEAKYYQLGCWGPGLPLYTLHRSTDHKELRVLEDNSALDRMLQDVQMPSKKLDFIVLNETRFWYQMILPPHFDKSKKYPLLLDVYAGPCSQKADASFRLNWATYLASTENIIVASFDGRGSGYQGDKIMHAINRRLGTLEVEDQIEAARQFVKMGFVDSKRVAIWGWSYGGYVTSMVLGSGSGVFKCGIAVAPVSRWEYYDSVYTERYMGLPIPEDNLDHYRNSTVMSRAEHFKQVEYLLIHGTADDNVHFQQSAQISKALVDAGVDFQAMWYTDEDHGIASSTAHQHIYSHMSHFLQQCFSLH
Procedure: Animals: ICR mouse (8-10 weeks old; sex: male; 25 g-30 g of body weight, purchased from Shanghai SLAC Laboratory Animal Center).
Meanwhile the solvent group was used as blank control. The blood was taken from orbital venous plexus of the mouse before administration, and 30, 60, 2 h, 4 h, 6 h, 8 h and […] after administration, respectively and loaded into Eppendorf tube (Qizhong Industrial (Shanghai) co., Ltd.) treated by anticoagulant. The plasma was obtained by centrifugation and DPP IV activity was determined.

[7] = test system: normal ICR mouse; assay: Oral glucose tolerance test (OGTT), acute hypoglycemic effect of single oral dose; format: in vivo; details: for hypoglycemic ability in vivo, oral glucose tolerance test: single dose 3 mg/kg by gavage, glucose 2.5 g/kg after 6 hours, FIGS. 7-10
Procedure: Acute hypoglycemic effect of single dose through mouth on the normal ICR mouse
Animal: ICR mouse (8-10 weeks old, sex: male, weight: 25-30 g, purchased from Shanghai SLAC Laboratory Animal Center).
1. Two days before the experiment, the food consumption was recorded and the daily food consumption of each animal was calculated;
2. The animals fasted overnight (⅓ of daily food consumption was provided, about 2 g);
3. The blood glucose was measured on the second day.
4. The medicament was administrated through gavage (1 mouse/min). After 6 hours, the blood glucose was measured. Glucose was administrated through gavage according to the body weight (2.5 g/kg). The blood glucose value was monitored at 30 min, 60 min, 90 min, and 120 min after administration.

[8] = Safety evaluation: single dose 100 mg/kg by gavage, one week observation; format: in vivo, ICR mouse; details: for body weight and viscera index versus normal control group (in words) / acute toxicity / kidney index versus normal control group (in words): ICR mouse; for body weight and viscera index versus normal control group (in words) / Kidney index / Liver index / Spleen index / body weight / food consumption: 100 mg/kg single dose; for acute toxicity: 100 mg/kg single dose by gavage, one week; for kidney index versus normal control group (in words): 100 mg/kg, 7th day after administration; for Kidney index / Liver index / Spleen index / body weight / food consumption: normal ICR mouse; for Kidney index / Liver index / Spleen index: 7th day
Procedure: After grouping, each compound was administrated once through gavage according to the dose of 100 mg/kg at the same time.

- IC50 [1]: 0.0263 µM
- DPP 7 IC50 [2]: N.I.
- DPP 8 IC50 [3]: N.I.
- IC50 [4]: 53.1 µM
- FAP IC50 [5]: N.I.
SMILES: Cc1ccc(CNC(=O)c2cc3nc(N4CCC[C@@H](N)C4)n(Cc4ccccc4C#N)c(=O)c3s2)cc1 [Compound 122, (R)-2-(3-aminopiperidin-1-yl)-3-(2-cyanobenzyl)-N-(4-methylbenzyl)-4-oxo-3,4-dihydrothieno[3,2-d]-pyrimidine-6-carboxamide]

SMILES: N#Cc1ccccc1Cn1c(N2CCC[C@@H](N)C2)nc2c(CO)csc2c1=O [DC291004]
- DPP IV activity of ICR mouse plasma after single dose (given as hypoglycemic ability in vivo) [6]: comparable to that of Alogliptin (3 mg), and better than that of Vildagliptin (LAF237, 15 mg)
- hypoglycemic ability in vivo, oral glucose tolerance test [7]: comparable to that of Alogliptin
- body weight and viscera index versus normal control group (in words) [8]: no statistical difference
- acute toxicity [8]: did not reflect obvious acute toxicity
- kidney index versus normal control group (in words) [8]: did not significantly differ
- Kidney index [8]: 1.5 ± 0.1%
- Liver index [8]: 5.3 ± 0.3%
- Spleen index [8]: 0.4 ± 0.0%
- body weight ([8]; 1 d after administration): 30.3 ± 1.0 g
- food consumption ([8]; 1 d after administration): 18.7 g · day^−1 · cage^−1
- body weight ([8]; 2 d after administration): 30.8 ± 0.9 g
- food consumption ([8]; 2 d after administration): 21.0 g · day^−1 · cage^−1
- body weight ([8]; 3 d after administration): 31.0 ± 1.2 g
- food consumption ([8]; 3 d after administration): 21.1 g · day^−1 · cage^−1
- body weight ([8]; 4 d after administration): 31.6 ± 1.2 g
- food consumption ([8]; 4 d after administration): 21.5 g · day^−1 · cage^−1
- body weight ([8]; 5 d after administration): 32.0 ± 1.6 g
- food consumption ([8]; 5 d after administration): 21.9 g · day^−1 · cage^−1
- body weight ([8]; 6 d after administration): 32.0 ± 1.2 g
- food consumption ([8]; 6 d after administration): 21.5 g · day^−1 · cage^−1
- body weight ([8]; 7 d after administration): 32.5 ± 1.3 g
- food consumption ([8]; 7 d after administration): 24.1 g · day^−1 · cage^−1
- body weight ([8]; before administration): 30.2 ± 0.7 g
- food consumption ([8]; before administration): 22.5 g · day^−1 · cage^−1

SMILES: N#Cc1ccccc1Cn1c(N2CCC[C@@H](N)C2)nc2c(CN3CCOCC3)csc2c1=O [DC291005]
- DPP IV activity of ICR mouse plasma after single dose (given as hypoglycemic ability in vivo) [6]: comparable to that of Alogliptin (3 mg), and better than that of Vildagliptin (LAF237, 15 mg)

SMILES: COC(=O)c1csc2c(=O)n(Cc3ccccc3C#N)c(N3CCC[C@@H](N)C3)nc12 [DC291009]
- DPP IV activity of ICR mouse plasma after single dose (given as hypoglycemic ability in vivo) [6]: comparable to that of Alogliptin (3 mg), and better than that of Vildagliptin (LAF237, 15 mg)
- hypoglycemic ability in vivo, oral glucose tolerance test after multiple single-dose administration ([7]; single administration at multiple doses, FIGS. 11-12): comparable to that of Alogliptin
- hypoglycemic ability in vivo, oral glucose tolerance test [7]: comparable to that of Alogliptin
- body weight and viscera index versus normal control group (in words) [8]: no statistical difference
- acute toxicity [8]: did not reflect obvious acute toxicity
- kidney index versus normal control group (in words) [8]: slightly lower than that of normal control group
- Kidney index [8]: 1.4 ± 0.1%
- Liver index [8]: 5.3 ± 0.2%
- Spleen index [8]: 0.4 ± 0.1%
- body weight ([8]; 1 d after administration): 31.3 ± 2.0 g
- food consumption ([8]; 1 d after administration): 21.2 g · day^−1 · cage^−1
- body weight ([8]; 2 d after administration): 31.5 ± 2.3 g
- food consumption ([8]; 2 d after administration): 21.3 g · day^−1 · cage^−1
- body weight ([8]; 3 d after administration): 31.8 ± 2.3 g
- food consumption ([8]; 3 d after administration): 22.6 g · day^−1 · cage^−1
- body weight ([8]; 4 d after administration): 32.3 ± 2.2 g
- food consumption ([8]; 4 d after administration): 22.8 g · day^−1 · cage^−1
- body weight ([8]; 5 d after administration): 32.4 ± 2.5 g
- food consumption ([8]; 5 d after administration): 22.2 g · day^−1 · cage^−1
- body weight ([8]; 6 d after administration): 32.6 ± 2.6 g
- food consumption ([8]; 6 d after administration): 21.9 g · day^−1 · cage^−1
- body weight ([8]; 7 d after administration): 33 ± 2.6 g
- food consumption ([8]; 7 d after administration): 23.8 g · day^−1 · cage^−1
- body weight ([8]; before administration): 30.8 ± 2.2 g
- food consumption ([8]; before administration): 23.3 g · day^−1 · cage^−1

SMILES: CCOC(=O)CNC(=O)c1csc2c(=O)n(Cc3ccccc3C#N)c(N3CCC[C@@H](N)C3)nc12 [DC291010]
- DPP IV activity of ICR mouse plasma after single dose (given as hypoglycemic ability in vivo) [6]: comparable to that of Alogliptin (3 mg), and better than that of Vildagliptin (LAF237, 15 mg)

SMILES: N#Cc1ccccc1Cn1c(N2CCC[C@@H](N)C2)nc2c(C(=O)NC3CCOCC3)csc2c1=O [DC291034]
- hypoglycemic ability in vivo, oral glucose tolerance test [7]: comparable to that of Alogliptin

SMILES: N#Cc1ccccc1Cn1c(N2CCC[C@@H](N)C2)nc2c(C#N)csc2c1=O [DC291036]
- hypoglycemic ability in vivo, oral glucose tolerance test [7]: comparable to that of Alogliptin

SMILES: CCOC(=O)CCNC(=O)c1csc2c(=O)n(Cc3ccccc3C#N)c(N3CCC[C@@H](N)C3)nc12 [DC291041]
- DPP IV activity of ICR mouse plasma after single dose (given as hypoglycemic ability in vivo) [6]: comparable to that of Alogliptin (3 mg), and better than that of Vildagliptin (LAF237, 15 mg)

SMILES: N#Cc1ccccc1Cn1c(N2CCC[C@@H](N)C2)nc2cc(COCc3ccccc3)sc2c1=O [DC291402]
- DPP IV activity of ICR mouse plasma after single dose (given as hypoglycemic ability in vivo) [6]: comparable to that of Alogliptin (3 mg), and better than that of Vildagliptin (LAF237, 15 mg)
- hypoglycemic ability in vivo, oral glucose tolerance test [7]: comparable to that of Alogliptin

SMILES: CC(=O)OCc1cc2nc(N3CCC[C@@H](N)C3)n(Cc3ccccc3C#N)c(=O)c2s1 [DC291405]
- DPP IV activity of ICR mouse plasma after single dose (given as hypoglycemic ability in vivo) [6]: comparable to that of Alogliptin (3 mg), and better than that of Vildagliptin (LAF237, 15 mg)

SMILES: N#Cc1ccccc1Cn1c(N2CCC[C@@H](N)C2)nc2cc(CO)sc2c1=O [DC291408]
- DPP IV activity of ICR mouse plasma after single dose (given as hypoglycemic ability in vivo) [6]: comparable to that of Alogliptin (3 mg), and better than that of Vildagliptin (LAF237, 15 mg)

SMILES: N#Cc1ccccc1Cn1c(N2CCC[C@@H](N)C2)nc2cc(C(=O)N3CCCCC3)sc2c1=O [DC291422]
- DPP IV activity of ICR mouse plasma after single dose (given as hypoglycemic ability in vivo) [6]: comparable to that of Alogliptin (3 mg), and better than that of Vildagliptin (LAF237, 15 mg)
